Laboratory results reported in article PMC6257670 (2010).

System: biotinylated m012 (RNA, aptamer) GGCGAAUUCUUCCGUUAUUGGAGCCAAGUCGCC
Experiment: competitive ELAA, absorbance 405 nm
Details: 150 mM NaCl, 5 mM MgCl2; 50 mM HEPES pH 7.4 (wash), 25 °C; biotinylated SPC (6 µM) displaced; immobilised aptamer

binding: yes
Compound: CCCCCCCCCCCCC/C=C/[C@@H](O)[C@@H](N)COP(=O)([O-])OCC[N+](C)(C)C
